One series concerns the target T1, Heparanase (Homo sapiens, UniProt Q9Y251).
T1 sequence (Q9Y251 whole entry): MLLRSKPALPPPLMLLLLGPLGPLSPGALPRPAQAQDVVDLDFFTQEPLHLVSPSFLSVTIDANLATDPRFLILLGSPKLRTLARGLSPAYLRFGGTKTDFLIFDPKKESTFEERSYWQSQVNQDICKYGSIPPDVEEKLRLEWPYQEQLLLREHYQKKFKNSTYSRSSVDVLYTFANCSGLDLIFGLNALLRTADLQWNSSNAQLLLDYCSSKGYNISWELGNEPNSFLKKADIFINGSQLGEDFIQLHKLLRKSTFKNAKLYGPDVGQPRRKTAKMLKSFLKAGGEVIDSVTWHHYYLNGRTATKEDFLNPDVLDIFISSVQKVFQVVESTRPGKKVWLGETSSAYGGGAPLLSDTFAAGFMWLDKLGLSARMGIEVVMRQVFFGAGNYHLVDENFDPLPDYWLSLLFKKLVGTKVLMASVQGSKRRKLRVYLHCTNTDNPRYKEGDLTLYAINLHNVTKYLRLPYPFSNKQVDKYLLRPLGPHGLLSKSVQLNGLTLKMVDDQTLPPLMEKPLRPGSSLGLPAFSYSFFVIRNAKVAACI
In words: Inhibitory activity against heparanase from human platelets.

Series [1] deals with T2, Heparanase (Homo sapiens) (UniProt Q9Y251).
T2 sequence (whole entry): T1 sequence (Q9Y251 whole entry)
In words: Inhibitory activity against heparanase from human platelets at 25 uM.

For series [2], the target named is T2, Heparanase (Homo sapiens). In words: Inhibitory activity against heparanase from human platelets at 0.83 uM.
A short description of series [3]: Plasma concentration in mice after 1 hr of administration of 30 mg/kg, po. The format is ADME, organism-based. Details: dose 30 mg/kg, route oral. Particulars: mouse.
Series [4] can be described thus: Plasma concentration in mice after 4 hrs of administration of 30 mg/kg, po. Details: dose 30 mg/kg, route oral. The settings on record: mouse. In kind it is ADME, organism-based.
The nature of series [5]: Plasma concentration in mice after 1 hr of administration of 50 mg/kg, ip. In kind it is ADME, organism-based. The settings on record: mouse. Details: dose 50 mg/kg, route intraperitoneal.
Series [6] is described as follows: Plasma concentration in mice after 4 hrs of administration of 50 mg/kg, ip. The format is ADME, organism-based. Further details: dose 50 mg/kg, route intraperitoneal. The settings on record: mouse.

`COc1ccc(C(=O)Nc2ccc(-c3nc4ccccc4[nH]3)cc2)cc1Cl`: on Heparanase, the concentration for half-maximal inhibition (IC50) was above 15 µM.

With `COc1ccc(S(=O)(=O)Nc2ccc(-c3nc4ccccc4[nH]3)cc2)cc1Br`, the IC50 against Heparanase is above 15 µM.

Regarding `COc1ccc(C(=O)N(C)c2ccc(-c3nc4ccccc4[nH]3)cc2)cc1Br`, the concentration for half-maximal inhibition (IC50) against Heparanase is above 15 µM.

Regarding `CCOc1ccc(C(=O)Nc2ccc(-c3nc4cc(OC)ccc4[nH]3)cc2)cc1Br`, the inhibition in series [1] was 73%.

For the compound `COc1ccc(C(=O)Nc2ccc(CNc3ccc(Cc4nc5ccccc5[nH]4)cc3)cc2)cc1Br`, in series [2], the inhibition was below 10%.

In series [1], `CCOc1ccc(C(=O)Nc2ccc(-c3nc4cc(Cl)c(Cl)cc4[nH]3)cc2)cc1Br` showed an inhibition of 30%.

As to `COc1ccc(NC(=O)c2ccc(-c3nc4ccccc4[nH]3)cc2)cc1Br`, the IC50 at Heparanase was above 15 µM.

`COc1ccc(C(=O)Nc2ccc(CNc3ccc(-c4nc5ccccc5[nH]4)cn3)cc2)cc1Br`: in series [3], the concentration at 1 h was 3800 nM. The concentration at 4 h in series [4] is 5500 nM.

Turning to `COc1ccc(C(=O)Nc2ccc(-c3nc4ccccc4[nH]3)cc2)cc1F`, at Heparanase, the IC50 is above 15 µM.

Take `CCOc1ccc(C(=O)Nc2ccc(-c3nc4cc(C)c(Cl)cc4[nH]3)cc2)cc1Br`: the inhibition in series [1] was found to be 30%.

As to `COc1ccc(C(=O)Nc2cccc(CNc3ccc(-c4nc5ccccc5[nH]4)cc3)c2)cc1Br`, the inhibition in series [2] is below 10%.

The compound `COc1ccc(C(=O)Nc2ccc(CNc3cccc(-c4nc5ccccc5[nH]4)c3)cc2)cc1Br` had an inhibition in series [2] below 10%.

Regarding `COc1ccc(CNc2ccc(-c3nc4ccccc4[nH]3)cc2)cc1Br`, on Heparanase, the IC50 is above 15 µM.

With `COc1ccc(C(=O)Nc2ccc(-c3nc4ccccc4[nH]3)cc2)cc1Br`, in series [5], the concentration at 1 h worked out at 2240 nM. Also, in series [6], the concentration at 4 h worked out at 670 nM.

The compound `CCOc1ccc(C(=O)Nc2ccc(-c3nc4cc(OC)c(OC)cc4[nH]3)cc2)cc1Br` gave an inhibition in series [1] of 35%.

`COc1ccc(CC(=O)Nc2ccc(-c3nc4ccccc4[nH]3)cc2)cc1Br` showed an IC50 on Heparanase above 15 µM.

The compound `CCOc1ccc(C(=O)Nc2ccc(-c3nc4ccccc4[nH]3)cc2)cc1Br` registered a concentration at 1 h in series [5] of 530 nM. The concentration at 4 h in series [6] amounted to 380 nM.
